Results from patent US8536175B2, “Quinoxaline carboxamide derivatives as protein tyrosine kinase inhibitors” (Novartis AG, priority 2008, dated 2013).

Molecular target: FGFR3 kinase (Homo sapiens (Human), UniProt P22607, K650E)
Test: FGFR3 kinase inhibition (protein kinase activity assays)
Assay type: biochemical
Details: read-out: rating (FGFR3 kinase IC50)
Description: generic assay set-up: Enzyme activities were measured by mixing 10 μL of a 3-fold concentrated compound solution or control with 10 μL of the corresponding substrate mixture (peptidic substrate, ATP and [γ^33P]ATP). The reactions were initiated by addition of 10 μL of a 3-fold concentrated solution of the respective enzyme in assay buffer. […] Filter binding (FB) method: FB assays were carried out in 96-well plates at room temperature for 10 min in a finial volume of 30 μL including the components as indicated in section above. […] After spotting, vacuum was connected and each well rinsed with 200 μL 0.5% H3PO4. Free membranes were removed and washed 4 times on a shaker with 1% H3PO4 and once with ethanol. Membranes were dried and overlaid with addition of 10 μL/well of a scintillation fluid. The plates were eventually sealed and counted in a microplate scintillation counter. IC50 values were calculated by linear regression analysis of the percentage inhibition of the compound.
generic assay set-up: The assay has been run at room temperature on a liquid handling robot. […] After an incubation time of 45 min in the dark, the plates were transferred into a fluorescence reader for counting.
Compounds of formula (I) are assayed to measure their capacity to inhibit FGFR3 kinase as described above.

Chain of FGFR3 kinase (P22607 23-806 K650E): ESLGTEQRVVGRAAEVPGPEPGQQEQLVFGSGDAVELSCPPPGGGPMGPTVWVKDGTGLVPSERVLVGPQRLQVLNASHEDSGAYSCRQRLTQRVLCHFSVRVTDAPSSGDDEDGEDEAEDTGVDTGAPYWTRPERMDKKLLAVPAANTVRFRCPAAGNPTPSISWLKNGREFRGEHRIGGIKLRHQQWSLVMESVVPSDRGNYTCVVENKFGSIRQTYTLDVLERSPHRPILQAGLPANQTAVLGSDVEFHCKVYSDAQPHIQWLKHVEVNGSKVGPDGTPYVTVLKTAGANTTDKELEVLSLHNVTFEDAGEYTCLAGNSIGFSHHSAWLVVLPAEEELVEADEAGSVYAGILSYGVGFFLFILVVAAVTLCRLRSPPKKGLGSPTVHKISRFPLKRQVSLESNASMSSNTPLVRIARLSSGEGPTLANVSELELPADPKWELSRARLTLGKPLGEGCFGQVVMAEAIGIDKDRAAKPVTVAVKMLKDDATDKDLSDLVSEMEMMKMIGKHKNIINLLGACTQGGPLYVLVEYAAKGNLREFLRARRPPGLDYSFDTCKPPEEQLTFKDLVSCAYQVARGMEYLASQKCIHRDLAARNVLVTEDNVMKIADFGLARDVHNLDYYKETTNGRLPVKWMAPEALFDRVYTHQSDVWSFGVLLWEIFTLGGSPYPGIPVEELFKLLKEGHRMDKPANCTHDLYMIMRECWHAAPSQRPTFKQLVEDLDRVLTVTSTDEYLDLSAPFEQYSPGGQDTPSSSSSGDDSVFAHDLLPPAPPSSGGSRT

| SMILES | IC50 |
| --- | --- |
| CCN1CCN(Cc2ccc(NC(=O)c3ccc(-c4c(Cl)c(OC)cc(OC)c4Cl)c4cccnc34)cn2)CC1 [Example 169, 5-(2,6-Dichloro-3,5-dimethoxy-phenyl)-quinoline-8-carboxylic acid [6-(4-ethyl-piperazin-1-ylmethyl)-pyridin-3-yl]-amide] | 100 to 500 nM |
| COc1cc(OC)c(Cl)c(-c2ccc(C(=O)Nc3ccc(CN4CCNCC4)nc3)c3ncccc23)c1Cl [Example 171, 5-(2,6-Dichloro-3,5-dimethoxy-phenyl)-quinoline-8-carboxylic acid (6-piperazin-1-ylmethyl-pyridin-3-yl)-amide] | 500 to 50000 nM |
